{"source": "patent US10060935B2", "about": "“ApoIII and the treatment and diagnosis of diabetes” (BioCrine AB, priority 2003, dated 2018)", "key": {"pancreatic β-cells": {"test_system": "pancreatic β-cells", "assay": "Measurements of [Ca2+]i (fura-2) in β-cells upon depolarization with 25 mM KCl", "format": "cell-based, mouse", "conditions": "for increase in [Ca2+]i / Ca2+ influx upon depolarization: 10 μg/ml, incubation of β-cells, versus vehicle (0.1% TFA) control", "protocol": "Preparation of Cells Adult mice from a local colony (3) were starved overnight. Pancreatic islets were isolated by a collagenase technique and cell suspensions were prepared as previously described (4, 5). Cells were seeded onto glass coverslips and cultured at 37° C. in a humidified atmosphere of 5% CO2 in air. • Preparation and Purification of Sera: Sera from T1D patients and control subjects were collected, identically sterile-processed and stored frozen at −20° C. until used. The sera were heat-inactivated by incubation at 56° C. for 30 min. Thereafter β-cells were incubated overnight in RPMI 1640 culture medium with 10% of the sera and changes in [Ca^2+]i were recorded, subsequent to depolarization with 25 mM KCl. The five T1D sera that induced an enhanced [Ca^2+]i response were centrifuged and the supernatant was passed through a […] sterile filter. Samples were loaded on Sep-Pak C18 (Waters, Ma) preconditioned with 0.1% TFA. After a wash with 0.1% TFA, proteins were eluted with 60% acetonitrile in 0.1% TFA and thereafter lyophilized. Batches of one milligram of the lyophilized sample were dissolved in 500 μl 0.1% TFA, centrifuged and injected into a RP-HPLC with a Vydac C18 (0.46×25 cm) column (Grace Vydac, Hesperia, Ca). The separation was made using a linear gradient of 20-60% acetonitrile in 0.1% TFA for 40 min at 1 ml/min. Fractions of 1 ml were collected and lyophilized.\nMeasurements of [Ca^2+]i Cells, attached to coverslips, were pretreated with the different compounds as described in the results and thereafter incubated in basal medium with 2 μM fura-2AM (Molecular Probes, Eugene, Oreg.) for 30 min. The coverslips were mounted as the bottom of an open chamber and cells were perfused with medium. Fluorescence signals were recorded with a SPEX Fluorolog-2 system connected to an inverted Zeiss Axiovert epifluorescence microscope. The excitation and emission wavelengths were 340/380 and 510 nm, respectively. The results are presented as 340/380 excitation ratios, directly representative of [Ca^2+]i (7)."}, "RINm5F cells": {"test_system": "RINm5F cells", "assay": "Flow cytometric analysis of cell death (Annexin V / propidium iodide)", "format": "cell-based", "conditions": "40 μg/ml apoCIII added to culture medium with 10% control serum, 36 h", "protocol": "Quantification of apoCIII Sera were collected and prepared as described above. The relative amounts of apoCIII in T1D serum and control serum, respectively were evaluated by comparisons of the peak area corresponding to apoCIII in the second RP-HPLC. • Flow Cytometric Analysis of Cell Death RINm5F cells were cultured for 36 h in the presence of 10% control serum, control serum and 40 μg/ml apoCIII or T1D serum with or without 100 or 200 μg/ml anti-apoCIII. The whole cell population was collected and stained with EGFP-conjugated Annexin V and propidium iodide (PI) (BD PharMingen) and analyzed on a FACscan using CELLQuest acquisition software (Becton Dickinson, Immunocytometry System). FACS gating, based on forward and side scatter, was used to exclude cellular debris and autofluorescence and typically 10 000 cells were selected for analysis."}, "[1]": {"test_system": "voltage-gated L-type Ca2+-channel", "assay": "Perforated-patch whole-cell patch clamp of Ca2+ currents in β-cells", "format": "cell-based, mouse", "conditions": "β-cells incubated with 10 μg/ml apoCIII overnight; depolarizations −10 to 10 mV from holding potential −70 mV", "protocol": "Patch Clamp Whole-cell Ca^2+ currents were recorded by using the perforated-patch variant of the whole-cell patch-clamp recording technique to eliminate the loss of soluble cytoplasmic components. Electrodes were filled with (in mM): 76 Cs2SO4, 1 MgCl2, 10 KCl, 10 NaCl, and 5 HEPES (pH 7.35), as well as amphotericin B (0.24 mg/ml) to permeabilize the cell membrane and allow low-resistance electrical access without breaking the patch. Pancreatic β-cells were incubated in RPMI 1640 medium with apoCIII (10:g/ml) or vehicle overnight. The cells were bathed in a solution containing (in mM): 138 NaCl, 10 tetraethylammonium chloride, 10 CaCl2, 5.6 KCl, 1.2 MgCl2, 5 HEPES and 3 D-glucose (pH 7.4). Whole-cell currents induced by voltage pulses (from a holding potential of −70 mV to several clamping potentials from −60 to 50 mV in 10 mV increments, 100 ms, 0.5 Hz) were filtered at 1 kHz and recorded. All recordings were made with an Axopatch 200 amplifier (Axon Instruments, Foster City, Calif.) at room temperature (about 22° C.). Acquisition and analysis of data were done using the software program pCLAMP6 (Axon Instruments, Foster City, Calif.)."}, "Ca2+-channel": {"test_system": "Ca2+-channel", "assay": "Immunoblot experiments for direct interaction with the Ca2+-channel", "format": "binding", "conditions": "immunoblot (data not shown)"}}, "note": "“Also recorded” adds a separate entry of the source.", "data": [{"substance": "apolipoprotein CIII [apoCIII]", "values": [{"measurement": "increase in [Ca2+]i / Ca2+ influx upon depolarization", "setting": "pancreatic β-cells", "value": "stimulate Ca^2+ influx"}, {"measurement": "increase in [Ca2+]i / Ca2+ influx upon depolarization", "setting": "pancreatic β-cells; listed as ApoCIII", "value": "increase in [Ca^2+]i"}, {"measurement": "effect on [Ca2+]i", "setting": "pancreatic β-cells; apoCIII 1, 3 and 6 μg/ml in culture medium", "value": "did not see any effects"}, {"measurement": "effect on [Ca2+]i", "setting": "pancreatic β-cells; apoCIII 10-50 μg/ml in culture medium", "value": "responses"}, {"measurement": "cell death", "setting": "RINm5F cells", "value": "increased cell death"}, {"measurement": "cell death", "setting": "RINm5F cells; listed as ApoCIII", "value": "β-cell death"}, {"measurement": "Ca2+-channel currents", "setting": "[1]", "value": "larger Ca^2+-channel currents than control cells; also recorded: activation of the voltage-gated L-type Ca^2+-channel"}, {"measurement": "direct interaction with the Ca2+-channel", "setting": "Ca2+-channel", "value": "not revealed a direct interaction"}]}]}
